According to patent US5195966A, “Treatment of mastitis and applicator therefor” (Diversey Limited, priority 1990, dated 1993):

How the values were obtained:
[1] = cited from earlier work
[2] = system: E. coli; test: Minimum inhibitory concentration against E. coli; assay type: cell-based; settings: E. coli (intestinal flora)
[3] = system: Str. dysgalactiae; test: Clinical cure of mastitis, Str. dysgalactiae; assay type: in vivo, dairy cattle; settings: 40 ml 1.25% w/v, 6 infusions at successive milkings
Description: (§1) Efficacy studies used half herds on a positive control and half herds on the experimental treatment. The protocol agreed was that herds were randomly split into two halves by number. Odd numbered cows received experimental treatment and even numbered cows received the positive control. Any animal sufficiently badly affected (i.e. systematically affected) should be the subject of a visit from a veterinary surgeon and was not included in the trial on either side.
(§2) Milk samples of each infected quarter were sent to the MMB Laboratories for cell count and bacterial identification as follows:.
(§3) A clinical cure is defined as the udder returning to normal function.
(§4) 40 ml of 1.25% w/v solution of sodium oxychlorosene infused 6 times at 6 milkings.
(§5) 1 full tube of 100 mg procaine penicillin/100 mg dihydro-streptomycin sulphate infused 6 times at 6 milkings. Five measurements can be made from the figures available:
(§6) Odd numbered animals. Sodium oxychlorosene. 40 ml 1.25% w/v. 6 times at successive milkings.
(§7) Procaine penicillin/Dihydrostreptomycin sulphate. 6 times at 6 milkings.

[4] = system: mastitis; test: Clinical efficacy in mastitis, overall and number of infusions to effect a clinical cure; assay type: in vivo, dairy cattle
Description: as §1, §2, §3, §4, §5
(§8) (The variations in n, the number of determinations from which the mean cell count is calculated, are due to various factors, such as samples leaking in transit, faster decomposition of samples in hot weather, especially where no inhibitor substances are present (i.e. sodium oxychlorosene). Mean number of infusions to effect a clinical cure where a clinical cure is affected after up to 6 infusions.

[5] = system: rats; test: LD50 of Clorpactin WCS-90 in a milk vehicle by the oral route; assay type: in vivo; settings: sterilized, γ-irradiated (2.5 megarads)
[6] = system: starters Streptococcus thermophilus and Lactobacillus bulgarius; test: Inhibitory effect on yoghurt starter cultures (lactic acid by titratable acidity); assay type: cell-based
Procedure: The inhibitory effect of "Clorpactin" on starter cultures was also investigated: Raw whole milk was pasteurized and spiked with various concentrations of freshly prepared "Clorpactin". These samples were inoculated with the starters Streptococcus thermophilus and Lactobacillus bulgarius contained in natural yoghurt, incubated at 37°/5 hours and the percent lactic acid determined by titratable acidity (BSI, 1741:1963).

[7] = bovine, in vivo
Procedure: An experimental study was conducted to determine if any absorption occurs between quarters during a course of treatment with "Clorpactin WCS-90".
The method used was to infuse two of the quarters of a healthy cow with a double normal strength course of treatment and to monitor each of the four quarters for "Clorpactin" residues, both during and after the trial. This with the assumption that if the material were being transferred between quarters by any mechanism it would be detected in the untreated quarters.
Analysis of the milk samples from each quarter was by ion-pair reverse-phase chromatography.
Calculation of the "Clorpactin" residues was by peak area with the milk used for the standards being prepared from milk obtained several days before treatment.
Two of the quarters were each infused with a double normal dose of "Clorpactin WCS-90" (2×0.5 g in 40 mls of physiological saline) on six consecutive occasions following 6 milkings.
The milk from all four quarters was monitored for residues both during and after the trial to determine if any transfer to untreated quarters had occurred.
The first infusion occurred after Milking No. 1, with the consequence that Milking 1 represents the background.

[8] = system: E. coli; test: Clinical cure of mastitis, E. coli; assay type: in vivo, dairy cattle; settings: of 4 cases; 40 ml 1.25% w/v, 6 infusions at successive milkings
Description: as §1, §2, §3, §4, §5, §6, §7

[9] = system: Staph. coagulase positive; test: Clinical cure of mastitis, Staph. coagulase positive; assay type: in vivo, dairy cattle; settings: 40 ml 1.25% w/v, 6 infusions at successive milkings
Description: as §1, §2, §3, §4, §5, §6, §7

[10] = in vivo
Description: The completed work, which takes the form of a series of individual studies, monitors the level of residues in milk from cows that were subjected to six infusions of a single normal strength "Clorpactin" dose (0.5 grams in 40 mls of physiological saline), both during infusion and for a series of milkings after the treatment was complete.
Analysis of the milk samples from each cow was by ion-pair reverse-phase chromatography. Calculation of the "Clorpactin" residues was, in the case of Study 01, by the peak height method, as the milk used for the standards was obtained from a different source from the cows under test (consequent detection limit 7 ppm). In studies, 02, 03 and 04 as the standards were made in milk obtained from the cow under test a few days prior to treatment, the peak area method was used (detection limit 1 ppm). […] Treatments:
Two mid-lactation cows (Fresian) were selected for the trial, with each being subjected to one course of treatment with the ""Clorpactin WCS-90". Treatments comprised six infusions, following six successive milkings, of "Clorpactin" at a single normal strength dose (0.5 gms per 40 mls of physiological saline)
Two healthy mid-lactation cows (Fresian) were selected for this trial, with again each cow being subjected to a single course of treatment with "Clorpactin WCS-90" Study 02 differed from Study 01 in that a sample of the milk from the quarters under test was removed from the cow a few days prior to treatment, to enable accurate standards to be prepared.
Three healthy mid-lactation cows (Fresian) were selected for the trial, with each being subjected to one course of treatment with the "Clorpactin WCS-90", to each of the four quarters of the animals.
The milk from all four quarters was monitored for residues during and after treatment, with the standards being made up in milk obtained from the quarters a few days before the trial.
Two mastitic cows, used in the efficacy study, were monitored for residues in the milk from a point where the milk appeared to be normal. It was not possible to evaluate the severely mastitic milk as no standards may be prepared to evaluate milk that is constantly changing in composition. The standards used in this case were made in milk obtained some 4 days after the last sample was taken.
Means cited at the foot of the Table are calculated taking the <7 ppm and <1 ppm results as 7 and 1, respectively.

[11] = system: Str. uberis; test: Clinical cure of mastitis, Str. uberis; assay type: in vivo, dairy cattle; settings: 40 ml 1.25% w/v, 6 infusions at successive milkings
Description: as §1, §2, §3, §4, §5, §6, §7

[12] = system: dairy cattle; settings: bovine, in vivo
[13] = system: St. faecalis; test: Minimum inhibitory concentration against St. faecalis; assay type: cell-based; settings: St. faecalis (intestinal flora)
[14] = system: Str. agalactiae; test: Clinical cure of mastitis, Str. agalactiae; assay type: in vivo, dairy cattle; settings: 40 ml 1.25% w/v, 6 infusions at successive milkings
Description: as §1, §2, §3, §4, §5, §6, §7

[15] = system: somatic cell counts in milk; test: Mean somatic cell counts in milk during and after completed treatments; assay type: in vivo, dairy cattle
Description: as §2
Somatic cell counts in milk from individual quarters is an indication of the state of health of that quarter. The higher the cell count, the greater is the degree of infection or the irritant effect in the udder.
The mean cell counts for all experimental milk samples submitted to the MMB are shown below. It is not always possible to obtain a cell count if the milk is obviously mastitic or if the sample deteriorates in transit. One problem with sodium oxychlorosene samples is that, due to lack of inhibitory effects, samples in transit may deteriorate quite rapidly. Samples containing antibiotic inhibitors are generally better protected from microbiological deterioration in transit. Some samples, when specifically needed for cell counts and not for causative organism assay, have been protected by the addition of formalin. This was carried out, for instance, when the irritancy studies were carried out.
as §8

Q: With (mon)oxychlorosene as the substance, how does the hydrolysis in water ([1]; after dissolving) read?
A: hydrolyses rapidly

Q: What about the dissolution in water [1] of the same substance?
A: dissolves slowly in water

Q: Which results are given for sodium oxychlorosene?
A: minimum inhibitory concentration [2]: approximately 2000 ppm; % Clinical Cures ([3]; 10 cases): 70%; Clinical Cures ([3]; of 10 cases): 7; clinical cure versus the conventional antibiotic ([4]; 1.25% w/v, 95% confidence level): superior to the conventional antibiotic; significance (p) of mean number of infusions, Experimental vs Positive control ([4]; 72 degrees of freedom, t = 3.098): < 0.01; Mean number of infusions to effect a clinical cure ([4]; clinical cure effected after up to 6 infusions, n = 70 (sodium oxychlorosene 1.25% w/v, On1 1.61), n = 30 (antibiotic, On1 1.10)): 4.11; LD50 [5]: > 5000 mg/kg; percent lactic acid ([6]; Clorpactin-spiked milk up to 0.01% (100 ppm), 37°/5 hours, control also about 0.9%): about 0.9 % lactic acid; effect on yoghurt starter culture activity ([6]; conclusion): no adverse affect on yoghurt starter culture activity; effect on lactic acid production ([6]; levels of up to 0.01% (100 ppm) in pasteurized milk, 37°/5 hours): no effect on lactic acid production; Clorpactin in the untreated quarters [7]: No evidence of any "Clorpactin" was detected in the untreated quarters; milking number by which level is clear [7]: ≤ 8; transference to the untreated quarters [7]: no mechanism of transference; Clinical Cures [8]: 3; % Clinical Cures ([9]; 72 cases): 90%; Clinical Cures ([9]; of 72 cases): 65; 10× mean residue level after withdrawal period [10]: 31 ppm; levels detected after treatment is complete [10]: quickly drops off to background; milking by which background has been achieved [10]: ≤ 8; withdrawal after treatment supported by the data [10]: one milking withdrawal; % Clinical Cures ([11]; 25 cases): 76%; Clinical Cures ([11]; of 25 cases): 19; adverse effects [12]: No adverse effects were found; minimum inhibitory concentration [13]: approximately 2000 ppm; % Clinical Cures ([14]; 51 cases): 82%; Clinical Cures ([14]; of 51 cases): 41; Mean Cell Counts ([15]; day 0): 6870; Mean Cell Counts ([15]; day 1): 6092; Mean Cell Counts ([15]; day 2): 4912; Mean Cell Counts ([15]; day 3): 4845; Mean Cell Counts ([15]; day 4): 3468; Mean Cell Counts ([15]; day 5): 2018; Mean Cell Counts ([15]; day 12): 1576; Mean Cell Counts ([15]; day 19): 965
